These results are taken from patent US11236086B2, “Substituted pyrrolopyridines as inhibitors of activin receptor-like kinase” (BLUEPRINT MEDICINES CORPORATION, priority 2017, dated 2022).

One may read the IC50 as the point on the concentration scale where inhibition reaches its midpoint.

The assay concerns the target T1, ALK2R206H (mutant ALK2, N-terminally tagged with GST) (Homo sapiens, UniProt Q04771, R206H).
T1 construct: purchased Carna Bioscience or ThermoFisher 09-148 or PV6232
T1 sequence (Q04771 21-509 R206H): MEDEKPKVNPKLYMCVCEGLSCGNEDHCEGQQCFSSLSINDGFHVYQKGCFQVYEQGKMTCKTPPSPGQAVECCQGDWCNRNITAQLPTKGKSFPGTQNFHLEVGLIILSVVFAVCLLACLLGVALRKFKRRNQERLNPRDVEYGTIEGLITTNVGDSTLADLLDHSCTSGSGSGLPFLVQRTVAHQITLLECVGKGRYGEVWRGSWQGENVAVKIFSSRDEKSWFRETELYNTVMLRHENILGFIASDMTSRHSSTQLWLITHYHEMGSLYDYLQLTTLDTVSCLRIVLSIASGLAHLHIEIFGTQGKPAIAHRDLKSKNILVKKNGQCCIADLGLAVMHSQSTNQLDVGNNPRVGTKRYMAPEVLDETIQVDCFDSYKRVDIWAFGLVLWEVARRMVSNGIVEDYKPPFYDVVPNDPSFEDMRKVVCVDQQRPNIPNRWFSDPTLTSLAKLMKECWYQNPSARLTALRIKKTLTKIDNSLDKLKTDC
The experiment in a line: ALK binding assay (LANTHASCREEN TR-FRET competitive binding, displacement of Kinase Tracer 178). The note with it: read-out: Binding Assay (IC50 class). Here is the method: Example 10 ALK Binding Assays
Binding assays were conducted using the LANTHASCREEN® technology (ThermoFisher Scientific). LANTHASCREEN® is a competitive binding, displacement assay where the assumed steady state occupancy of the binding site is measured using a time-resolved, fluorescence energy transfer (TR-FRET) readout between a fluorescent tracer and Europium (Eu)-tagged antibody specific for the kinase or expression tag (e.g., GST) of interest. Displacement of the tracer by a compound of the disclosure reduces, and is directly proportional to, the TR-FRET between the tracer and the antibody. Tracer was used at a concentration equal to or near to its Kd for the kinase. The Eu-tagged antibody was typically used in excess to ensure sampling of all competent protein capable of binding the tracer.
For these assays, a mutant ALK2 was used that was N-terminally tagged with GST (ALK2R206H Carna Bioscience (09-148) or ALK2R206H ThermoFisher (PV6232)); a Eu-tagged anti-GST antibody (ThermoFisher) and Kinase Tracer 178 (ThermoFisher).
In all cases, the kinase (2-5 nM) was mixed with Eu-tagged antibody (4-10 nM) mix and tracer (50 nM) were incubated with test compound titrations prepared in 100% DMSO (1% DMSO final) for 30 minutes at room temperature. All reagents and compounds were dissolved in Kinase Buffer A (ThermoFisher) to achieve the final concentration. The plates were read on a PerkinElmer EnVision® multilabel plate reader or a BioTek Synergy Neo plate reader, and the assay signal was represented as a ratio of the TR-FRET emission (λex 330 nm, λ^em […] and λ^em 665 nm). This readout was normalized to 0% and 100% inhibited control wells, plotted against inhibitor concentration, and fitted to a 4-parameter log dose response curve.
The results of this assay are shown in Table 3 in the column labelled “Binding Assay” wherein “A” represents an IC50 of less than or equal to 10 nM; “B” represents an IC50 of greater than 10 nM and less than or equal to 50 nM; and “C” represents an IC50 of greater than 50 nM. Blank values in the table indicate that the particular compound was not tested in this assay.
(In general: Time-resolved FRET reads energy transfer from a long-lived donor to a nearby acceptor.)
As for `CCN1CCN(c2ccc(-c3cc4c(N5CCN(C(=O)C6CC6)CC5)ccnc4[nH]3)c(OC)c2)CC1` [Compound 454], the IC50 was 10 to 50 nM.
Turning to `Cc1[nH]ncc1-c1cc2c(N3CCN(C(=O)OC4COC4)CC3)ccnc2[nH]1` [Compound 92], the concentration for half-maximal inhibition (IC50) is at most 10 nM.
With `CCOC(=O)N1CCN(c2ccnc3[nH]c(-c4cccc(OC)n4)cc23)CC1` [Compound 85] the figure was at most 10 nM; with `CCOC(=O)N1CCN(c2ccnc3[nH]c(-c4nn(C)cc4C)cc23)CC1` [Compound 42], 10 to 50 nM.
With `CCOC(=O)N1CCN(c2ccnc3[nH]c(-c4ccc(C)nc4)cc23)CC1` [Compound 27] the figure was at most 10 nM; with `Cn1cc(-c2cc3c(N4CCN(C(=O)OCC5CCCO5)CC4)ccnc3[nH]2)cn1` (stereo not shown) [Compound 238], at most 10 nM.
With `CC(C)Oc1ccc(-c2cc3c(N4CCN(C(=O)C5CC5)CC4)ccnc3[nH]2)c(Cl)c1` [Compound 364] the figure was 10 to 50 nM.
On to `Cc1nnc(-c2cc3c(N4CCN(C(=O)OC5COC5)CC4)ccnc3[nH]2)o1` [Compound 110], for which the IC50 fell in the range of 10 to 50 nM.
Regarding `O=C(C1CC1)N1CCN(c2ccnc3[nH]c(-c4ccc(C(F)(F)F)cc4)cc23)CC1` [Compound 253], the IC50 was in the range of 10 to 50 nM.
In the case of `CC(=O)Nc1ccc(-c2cc3c(N4CCN(C(=O)OC5COC5)CC4)ccnc3[nH]2)nc1` [Compound 353], the IC50 is 10 to 50 nM.
With `CCOC(=O)N1CCN(c2ccnc3[nH]c(-c4cc(C)ccn4)cc23)CC1` [Compound 25] the figure was at most 10 nM; with `O=C(C1CC1)N1CCN(c2ccnc3[nH]c(-c4cc(F)cc(F)c4)cc23)CC1` [Compound 88], at most 10 nM; with `CCC(=O)c1ccc(-c2cc3c(N4CCN(C(=O)C5CC5)CC4)ccnc3[nH]2)cc1` [Compound 184], at most 10 nM.
On to `O=C(C1CC1)N1CCN(c2ccnc3[nH]c(-c4ccc(CO)cc4)cc23)CC1` [Compound 57], for which the IC50 is at most 10 nM.
With `COc1ccccc1-c1cc2c(N3CCN(C(=O)C4CC4)CC3)ccnc2[nH]1` [Compound 58], the half-maximal inhibitory concentration (IC50) was over 50 nM.
With `Cc1nc(-c2[nH]c3nccc(N4CCN(C(=O)OC5COC5)CC4)c3c2C#N)sc1C` [Compound 360], the IC50 was at most 10 nM.
With `Cn1cc(-c2cc3c(N4CCN(C(=O)OCC5CC5)CC4)ccnc3[nH]2)cn1` [Compound 80], the concentration for half-maximal inhibition (IC50) was at most 10 nM.
As to `N#Cc1cccc(-c2cc3c(N4CCN(C(=O)C5CC5)CC4)ccnc3[nH]2)c1` [Compound 44], the half-inhibitory concentration (IC50) was in the range of 10 to 50 nM.
`CCOc1ccc(-c2cc3c(N4CCN(C(=O)C5CC5)CC4)ccnc3[nH]2)c(Cl)c1` [Compound 309]: the IC50 is over 50 nM.
Consider `Cn1cc(-c2cc3c(N4CCN(C(=O)OCC5(C)COC5)CC4)ccnc3[nH]2)cn1` [Compound 236], for which the IC50 is at most 10 nM.
Regarding `CCc1ccc(-c2cc3c(N4CCN(C(=O)C5CC5)CC4)ccnc3[nH]2)c(Cl)c1` [Compound 226], the IC50 was 10 to 50 nM.
With `O=C(C1CC1)N1CCN(c2ccnc3[nH]c(-c4cccc(F)c4)cc23)CC1` [Compound 17], the IC50 is 10 to 50 nM.
With `CCN1CCN(c2ccc(-c3cc4c(N5CCN(C(=O)C6CC6)CC5)ccnc4[nH]3)c3ncccc23)CC1` [Compound 471] the figure was at most 10 nM; with `O=C(OC1COC1)N1CCN(c2ccnc3[nH]c(-c4csc(C(=O)N5CCCC5)n4)cc23)CC1` [Compound 448], at most 10 nM.
Next, `O=C(C1CC1)N1CCN(c2ccnc3[nH]c(-c4ccc(OCc5ccccc5)cc4)cc23)CC1` [Compound 406]: 10 to 50 nM; `CC(C)(C)c1cnc(-c2cc3c(N4CCN(C(=O)OC5COC5)CC4)ccnc3[nH]2)s1` [Compound 373]: 10 to 50 nM.
Next, `Cc1nc(-c2[nH]c3nccc(N4CCN(C(=O)OC5COC5)CC4)c3c2Cl)sc1C` [Compound 391]: at most 10 nM.
On to `N#Cc1cc(C2(O)CCOCC2)ccc1-c1cc2c(N3CCN(C(=O)OC4COC4)CC3)ccnc2[nH]1` [Compound 465], for which the IC50 is at most 10 nM.
With `CCOC(=O)N1CCN(c2ccnc3[nH]c(-c4nn(C)cc4C#N)cc23)CC1` [Compound 72], the IC50 fell in the range of 10 to 50 nM.
With `O=C(C1CC1)N1CCN(c2ccnc3[nH]c(-c4ccc(C5CCCCC5)cc4)cc23)CC1` [Compound 319], the IC50 lay within 10 to 50 nM.
As for `Cc1cnc(-c2cc3c(N4CCN(C(=O)OC5COC5)CC4)ccnc3[nH]2)o1` [Compound 108], the IC50 lay in the range of 10 to 50 nM.
Turning to `CC(C)OCCOC(=O)N1CCN(c2ccnc3[nH]c(-c4cnn(C)c4)cc23)CC1` [Compound 247], the IC50 was at most 10 nM.
In the case of `CCc1c(-c2cc3c(N4CCN(C(=O)OC5COC5)CC4)ccnc3[nH]2)cnn1C` [Compound 235], the IC50 was at most 10 nM.
As for `Cn1cc(-c2cc3c(N4CCN(C(=O)OCCOC(C)(C)C)CC4)ccnc3[nH]2)cn1` [Compound 314], the IC50 was at most 10 nM.
Consider `Cn1cc(-c2cc3c(N4CCN(C(=O)C(C)(C)CO)CC4)ccnc3[nH]2)cn1` [Compound 101], for which the IC50 fell in the range of 10 to 50 nM.
With `CCOC(=O)N1CCN(c2ccnc3[nH]c(-c4ncccn4)cc23)CC1` [Compound 9] the figure was at most 10 nM; with `Cn1cc(-c2cc3c(N4CCN(C(=O)[C@H]5CCOC5)CC4)ccnc3[nH]2)cn1` [Compound 78], at most 10 nM; with `O=C(OC1COC1)N1CCN(c2ccnc3[nH]c(-c4ncccn4)cc23)CC1` [Compound 73], at most 10 nM.
In the case of `Cn1cc(-c2cc3c(N4CCN(C(=O)OCC5CCCCO5)CC4)ccnc3[nH]2)cn1` (stereo not shown) [Compound 306], the IC50 is at most 10 nM.
Turning to `Cc1nc(-c2[nH]c3nccc(N4CCN(C(=O)OC5COC5)CC4)c3c2C)sc1C` [Compound 318], the IC50 is at most 10 nM.
In the case of `CC(C)(O)c1csc(-c2cc3c(N4CCN(C(=O)OC5COC5)CC4)ccnc3[nH]2)n1` [Compound 379], the IC50 was at most 10 nM.
Turning to `Cc1nc(-c2[nH]c3nccc(N4CCN(C(=O)OC5COC5)CC4)c3c2C#N)co1` [Compound 216], the IC50 was at most 10 nM.
On to `CCC(C)CC(=O)N1CCN(c2ccnc3[nH]c(-c4cnn(C)c4)cc23)CC1` (stereo not shown) [Compound 83], for which the IC50 was in the range of 10 to 50 nM.
As to `Cn1cnc(-c2cc3c(N4CCN(C(=O)O[C@@H]5CC(F)(F)C5(F)F)CC4)ccnc3[nH]2)c1` [Compound 400], the IC50 is at most 10 nM.
For the compound `O=C(C1CC1)N1CCN(c2ccnc3[nH]c(-c4ccccc4F)cc23)CC1` [Compound 18], the concentration for half-maximal inhibition (IC50) is 10 to 50 nM.
Next, `CCOCC(=O)N1CCN(c2ccnc3[nH]c(-c4cnn(C)c4)cc23)CC1` [Compound 43]: over 50 nM; `Cc1c(-c2cc3c(N4CCN(C(=O)C5CC5)CC4)ccnc3[nH]2)cnn1C` [Compound 22]: 10 to 50 nM; `CCOC(=O)N1CCN(c2ccnc3[nH]c(-c4cnn(C)c4)c(S(C)(=O)=O)c23)CC1` [Compound 339]: 10 to 50 nM.
Consider `Cc1ccccc1-c1cc2c(N3CCN(C(=O)C4CC4)CC3)ccnc2[nH]1` [Compound 14], for which the IC50 was over 50 nM.
`CCOC(=O)N1CCN(c2ccnc3[nH]c(-c4cc(C)ns4)cc23)CC1` [Compound 47]: the concentration for half-maximal inhibition (IC50) is at most 10 nM.
In the case of `CCC(=O)c1c(-c2cn(C)c(C)n2)[nH]c2nccc(N3CCN(C(=O)OC4COC4)CC3)c12` [Compound 404], the IC50 lay within 10 to 50 nM.
Next, `CCOCCOC(=O)N1CCN(c2ccnc3[nH]c(-c4cnn(C)c4)cc23)CC1` [Compound 164]: at most 10 nM.
